Assay results published in the NIST ThermoML archive (doi:10.1016/j.jct.2004.12.005).

How the values were obtained:
[1] = 298.15 K; 101.33 kPa; Liquid
[2] = excess molar enthalpy (molar enthalpy of mixing); xn = mol fraction of the nth substance listed; conditions: 298.15 K, 101.3 kPa, Liquid, Flow calorimetry

CC1CCCO1 (configuration not stated) [2-methyltetrahydrofuran]
Conditions | mass density [kg/m3]
[1] | 848.1

CCCCCCCCCCCC [dodecane]
Conditions | mass density [kg/m3]
[1] | 745.38

CC1CCCO1 (configuration not stated) [2-methyltetrahydrofuran] + COC(C)(C)C
[2]
Conditions | excess molar enthalpy [kJ/mol]
x1 = 0.0499 | 0.00667
x1 = 0.0998 | 0.0125
x1 = 0.1498 | 0.0178
x1 = 0.2002 | 0.0226
x1 = 0.2501 | 0.0266
x1 = 0.3004 | 0.03
x1 = 0.3504 | 0.033
x1 = 0.4001 | 0.0343
x1 = 0.4501 | 0.0359
x1 = 0.5007 | 0.0366
x1 = 0.5495 | 0.037
x1 = 0.5999 | 0.036
x1 = 0.6501 | 0.0341
x1 = 0.7002 | 0.0315
x1 = 0.7508 | 0.0282
x1 = 0.8 | 0.0244
x1 = 0.8509 | 0.0198
x1 = 0.9 | 0.0141
x1 = 0.95 | 0.00768

C1CCOC1 [tetrahydrofuran]
Conditions | mass density [kg/m3]
[1] | 882.09

COC(C)(C)C [2-methoxy-2-methylpropane] + C1CCOC1
[2]
Conditions | excess molar enthalpy [kJ/mol]
x2 = 0.1015 | 0.0343
x2 = 0.1924 | 0.0598
x2 = 0.2745 | 0.0778
x2 = 0.3482 | 0.0903
x2 = 0.4173 | 0.0979
x2 = 0.4784 | 0.102
x2 = 0.5358 | 0.104
x2 = 0.5883 | 0.102
x2 = 0.6368 | 0.0976
x2 = 0.6821 | 0.0925
x2 = 0.7242 | 0.086
x2 = 0.7626 | 0.0786
x2 = 0.7994 | 0.0701
x2 = 0.8338 | 0.0611
x2 = 0.8655 | 0.0514
x2 = 0.8799 | 0.0467
x2 = 0.9246 | 0.0309
x2 = 0.9507 | 0.0198
x2 = 0.9761 | 0.0101

COC(C)(C)C [2-methoxy-2-methylpropane]
Conditions | mass density [kg/m3]
[1] | 735.99
